# Target: T1, cytoplasmic kinase domain of human IGF-1R (IGF-1R-GST) (Homo sapiens, UniProt P08069)
# T1 construct: cytoplasmic kinase domain of human IGF-1R (amino acids 964-1370); GST (glutathione-S-transferase); made in house; host or cells: High Five insect cells (Invitrogen)
# Experiment: Insulin-like growth factor-1 receptor (IGF-1R) kinase assay (DELFIA)
# Type: biochemical
# Details: IGF-1R-GST kinase activity, read-out: IGF1R IC50
# Method: Insulin-Like Growth Factor-1 Receptor (IGF-1R)-Kinase Assay
# The kinase activity is measured by DELFIA® assay (dissociation-enhanced lanthanide fluorescence immunoassay, Perkin Elmer). […] Enzyme activity is measured in the presence of substances and a control substance. Poly-glutamate-tyrosine peptide (pEY, Sigma Aldrich) and biotinylated pEY (bio-pEY) are used as reaction substrates.
# After 40 min at RT the reactions are stopped with 50 μL of stop solution (250 mM EDTA, 20 mM HEPES pH 7.4). 90 μL from each reaction are transferred onto streptavidin-coated 96-well plates. After 120 min incubation at RT the plates are washed three times with 200 μL phosphate-buffered saline (PBS) per well. The plates are incubated for 60 min with 100 μL of europium-coupled antibody against phospho-tyrosine (diluted 1/2000 in Perkin Elmer DELFIA assay buffer) per well. The plates are washed three times with 200 μL per well of DELFIA washing buffer. 100 μL DELFIA Enhancement Solution (Perkin Elmer) is added to each well, and the plates are incubated for 10 min. The fluorescence signal is measured with a Wallac Victor TRF Reader. IC50 values for the inhibition of the IGF-1R-kinase activity are calculated using the programmes Fifty (Version 2) and GraphPad (Version 3.0).
# T1 sequence (P08069 964-1367 limits assumed): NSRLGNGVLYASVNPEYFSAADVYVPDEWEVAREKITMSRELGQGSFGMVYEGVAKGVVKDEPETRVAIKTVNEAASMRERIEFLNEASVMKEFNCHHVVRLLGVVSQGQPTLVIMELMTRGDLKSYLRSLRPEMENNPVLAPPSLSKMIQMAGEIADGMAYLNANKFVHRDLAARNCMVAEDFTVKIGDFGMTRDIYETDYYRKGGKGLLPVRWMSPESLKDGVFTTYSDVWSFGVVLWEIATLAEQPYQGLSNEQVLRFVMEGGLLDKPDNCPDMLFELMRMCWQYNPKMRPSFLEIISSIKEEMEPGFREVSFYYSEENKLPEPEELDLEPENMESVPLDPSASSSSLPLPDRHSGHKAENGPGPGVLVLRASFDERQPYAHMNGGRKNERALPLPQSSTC
row,Structure (SMILES),IC50 [nM]
1,Cc1cc(C2CCCNC2)ccc1Nc1ncc(Br)c(NCc2cccc3c2C(C)(C)C(=O)N3)n1 (racemic) [Example I-7],0.69
2,CC(=O)N1CCC(n2cc(Nc3ncc(Cl)c(NCc4cccc5c4C(C)(C)C(=O)N5)n3)cn2)CC1 [Example I-2],21
3,CN1CCN(c2ccc(Nc3ncc(Br)c(NCc4cccc5c4CC(=O)N5)n3)cc2)CC1 [Example I-8],28
4,COc1cc(N2CCNCC2)ccc1Nc1ncc(Cl)c(NCc2cccc3c2C(C)(C)C(=O)N3)n1 [Example I-11],2
5,COc1cc(N2CCC(N3CCN(S(C)(=O)=O)CC3)CC2)ccc1Nc1ncc(C(F)(F)F)c(NCc2cccc3c2C(C)(C)C(=O)N3)n1 [Example I-25],7
6,COc1cc(N2CCC(N3CCN(S(C)(=O)=O)CC3)CC2)ccc1Nc1ncc(C(F)(F)F)c(NCc2cccc3c2CC(=O)N3)n1 [Example I-26],9
7,COc1cc(N2CCNCC2)ccc1Nc1ncc(C(F)(F)F)c(NCc2cccc3c2C(C)(C)C(=O)N3C)n1 [Example I-30],3
8,CCOc1cc(N2CCNCC2)ccc1Nc1ncc(C(F)(F)F)c(NCc2cccc3c2C(C)(C)C(=O)N3)n1 [Example I-33],0.6
9,CN(C)CC(=O)N1CCC(c2ccc(Nc3ncc(Br)c(NCc4cccc5c4C(C)(C)C(=O)N5)n3)cc2)CC1 [Example I-42],0.79
10,CN(C)CC(=O)N1CCC(c2ccc(Nc3ncc(Cl)c(NCc4cccc5c4C(C)(C)C(=O)N5)n3)cc2)CC1 [Example I-43],7
11,CC(C)(C)OC(=O)N1CCC[C@H]1C(=O)N1CCC(c2ccc(Nc3ncc(Cl)c(NCc4cccc5c4C(C)(C)C(=O)N5)n3)cc2)CC1 [Example I-44],25
12,CC(C)(C)OC(=O)NCC(=O)N1CCC(c2ccc(Nc3ncc(Cl)c(NCc4cccc5c4C(C)(C)C(=O)N5)n3)cc2)CC1 [Example I-45],23
13,CN(CC(=O)N1CCC(c2ccc(Nc3ncc(Cl)c(NCc4cccc5c4C(C)(C)C(=O)N5)n3)cc2)CC1)C(=O)OC(C)(C)C [Example I-46],29
14,CC(C)(C)OC(=O)N1CC(C(=O)N2CCC(c3ccc(Nc4ncc(Cl)c(NCc5cccc6c5C(C)(C)C(=O)N6)n4)cc3)CC2)C1 [Example I-47],38
15,CC1(C)C(=O)Nc2cccc(CNc3nc(Nc4ccc(C5CCN(C(=O)[C@@H]6CCCN6)CC5)cc4)ncc3Cl)c21 [Example I-49],5
16,CC1(C)C(=O)Nc2cccc(CNc3nc(Nc4ccc(C5CCN(C(=O)CN)CC5)cc4)ncc3Cl)c21 [Example I-50],3
17,CNCC(=O)N1CCC(c2ccc(Nc3ncc(Cl)c(NCc4cccc5c4C(C)(C)C(=O)N5)n3)cc2)CC1 [Example I-51],2
18,CC1(C)C(=O)Nc2cccc(CNc3nc(Nc4ccc(C5CCN(C(=O)C6CNC6)CC5)cc4)ncc3Cl)c21 [Example I-52],7
19,COc1cc(C2CCN(C(=O)CN(C)C)CC2)ccc1Nc1ncc(Cl)c(NCc2cccc3c2C(C)(C)C(=O)N3)n1 [Example I-58],1
20,COc1cc(N2CCN(C(=O)CCN3CCCC3)CC2)ccc1Nc1ncc(Cl)c(NCc2cccc3c2C(C)(C)C(=O)N3)n1 [Example I-59],4
21,COc1cc(N2CCN(C(=O)C3CCN(C)CC3)CC2)ccc1Nc1ncc(Cl)c(NCc2cccc3c2C(C)(C)C(=O)N3)n1 [Example I-60],3
22,COc1cc(N2CCN(C(=O)CN3CCN(C)CC3)CC2)ccc1Nc1ncc(Cl)c(NCc2cccc3c2C(C)(C)C(=O)N3)n1 [Example I-61],3
23,COc1cc(N2CCN(C(=O)CN(C)C)CC2)ccc1Nc1ncc(Cl)c(NCc2cccc3c2C(C)(C)C(=O)N3)n1 [Example I-62],1
24,COc1cc(N2CCN(C(=O)C3CCCN(C)C3)CC2)ccc1Nc1ncc(Cl)c(NCc2cccc3c2C(C)(C)C(=O)N3)n1 (stereo not shown) [Example I-63],2
25,COc1cc(N2CCN(C(=O)CCCN(C)C)CC2)ccc1Nc1ncc(Cl)c(NCc2cccc3c2C(C)(C)C(=O)N3)n1 [Example I-64],2
26,COc1cc(N2CCN(C(C)=O)CC2)ccc1Nc1ncc(C(F)(F)F)c(NCc2cccc3c2CC(=O)N3)n1 [Example I-70],21
27,COc1cc(N2CCN(C(=O)N(C)C)CC2)ccc1Nc1ncc(C(F)(F)F)c(NCc2cccc3c2CC(=O)N3)n1 [Example I-71],50
28,CCOC(=O)N1CCN(c2ccc(Nc3ncc(C(F)(F)F)c(NCc4cccc5c4CC(=O)N5)n3)c(OC)c2)CC1 [Example I-72],72
29,COC(=O)N1CCN(c2ccc(Nc3ncc(C(F)(F)F)c(NCc4cccc5c4C(C)(C)C(=O)N5)n3)c(OC)c2)C[C@H]1C [Example I-73],29

# Continued, values first:
row,IC50 [nM],Structure (SMILES)
1,2,CN(C)CCCC(=O)N1CCC(c2ccc(Nc3ncc(C(F)(F)F)c(NCc4cccc5c4C(C)(C)C(=O)N5)n3)cc2)CC1 [Example I-74]
2,2,CN(C)CC(=O)N1CCC(c2ccc(Nc3ncc(C(F)(F)F)c(NCc4cccc5c4C(C)(C)C(=O)N5)n3)cc2)CC1 [Example I-75]
3,11,COc1cc(N2CCN(C(=O)N(C)C)CC2)ccc1Nc1ncc(C(F)(F)F)c(NCc2cccc3c2C(C)(C)C(=O)N3)n1 [Example I-76]
4,3,COc1cc(N2CCN(C(C)=O)CC2)ccc1Nc1ncc(C(F)(F)F)c(NCc2cccc3c2C(C)(C)C(=O)N3)n1 [Example I-77]
5,30,CCOc1cc(N2CCN(C(C)=O)CC2)ccc1Nc1ncc(C(F)(F)F)c(NCc2cccc3c2CC(=O)N3)n1 [Example I-78]
6,4,CCOc1cc(N2CCN(C(C)=O)CC2)ccc1Nc1ncc(C(F)(F)F)c(NCc2cccc3c2C(C)(C)C(=O)N3)n1 [Example I-79]
7,47,COc1cc(N2CC3CC2CN3C(C)=O)ccc1Nc1ncc(C(F)(F)F)c(NCc2cccc3c2C(C)(C)C(=O)N3)n1 (stereo not shown) [Example I-80]
8,81,COc1cc(N2CC3CC2CN3C(=O)N(C)C)ccc1Nc1ncc(C(F)(F)F)c(NCc2cccc3c2C(C)(C)C(=O)N3)n1 (stereo not shown) [Example I-81]
9,65,COC(=O)N1CC2CC1CN2c1ccc(Nc2ncc(C(F)(F)F)c(NCc3cccc4c3C(C)(C)C(=O)N4)n2)c(OC)c1 (stereo not shown) [Example I-82]
10,5,COCC(=O)N1CCN(c2ccc(Nc3ncc(C(F)(F)F)c(NCc4cccc5c4C(C)(C)C(=O)N5)n3)c(OC)c2)CC1 [Example I-83]
11,0.3,COc1cc(N2CCN(C(=O)CN(C)C)CC2)ccc1Nc1ncc(C(F)(F)F)c(NCc2cccc3c2C(C)(C)C(=O)N3)n1 [Example I-84]
12,9,COCCC(=O)N1CCN(c2ccc(Nc3ncc(C(F)(F)F)c(NCc4cccc5c4C(C)(C)C(=O)N5)n3)c(OC)c2)CC1 [Example I-85]
13,1,COc1cc(N2CCN(C(=O)CCCN(C)C)CC2)ccc1Nc1ncc(C(F)(F)F)c(NCc2cccc3c2C(C)(C)C(=O)N3)n1 [Example I-86]
14,3,COc1cc(N2CCN(C(=O)C3CCN(C)CC3)CC2)ccc1Nc1ncc(C(F)(F)F)c(NCc2cccc3c2C(C)(C)C(=O)N3)n1 [Example I-87]
15,9,COc1cc(N2CCN(C(=O)CN3CCN(C)CC3)CC2)ccc1Nc1ncc(C(F)(F)F)c(NCc2cccc3c2C(C)(C)C(=O)N3)n1 [Example I-88]
16,0.18,COc1cc(N2CCN(C(=O)CCN(C)C)CC2)ccc1Nc1ncc(C(F)(F)F)c(NCc2cccc3c2C(C)(C)C(=O)N3)n1 [Example I-89]
17,0.32,COc1cc(N2CCN(C(=O)C3CCCN(C)C3)CC2)ccc1Nc1ncc(C(F)(F)F)c(NCc2cccc3c2C(C)(C)C(=O)N3)n1 (stereo not shown) [Example I-90]
18,6,COc1cc(N2CCN(C(=O)CN(C)C)CC2)ccc1Nc1ncc(C(F)(F)F)c(NCc2cccc3c2CC(=O)N3)n1 [Example I-91]
19,9,COc1cc(N2CCN(C(=O)CCCN(C)C)CC2)ccc1Nc1ncc(C(F)(F)F)c(NCc2cccc3c2CC(=O)N3)n1 [Example I-92]
20,5,CC1(C)C(=O)Nc2cccc(CNc3nc(Nc4ccc(C5CCN(C6COC6)CC5)cc4)ncc3Cl)c21 [Example I-93]
21,14,CN1CCN(c2ccc(Nc3ncc(Cl)c(NCc4cccc5c4C(C)(C)C(=O)N5)n3)cc2)CC1 [Example I-94]
22,16,COc1cc(N2CCN(C3CCOCC3)CC2)ccc1Nc1ncc(Cl)c(NCc2cccc3c2C(C)(C)C(=O)N3)n1 [Example I-95]
23,3,COc1cc(N2CCN(C3CCC3)CC2)ccc1Nc1ncc(Cl)c(NCc2cccc3c2C(C)(C)C(=O)N3)n1 [Example I-96]
24,2,COc1cc(N2CCN(C(C)C)CC2)ccc1Nc1ncc(Cl)c(NCc2cccc3c2C(C)(C)C(=O)N3)n1 [Example I-98]
25,2,CCN1CCN(c2ccc(Nc3ncc(Cl)c(NCc4cccc5c4C(C)(C)C(=O)N5)n3)c(OC)c2)CC1 [Example I-99]
26,2,COc1cc(C2CCN(C)CC2)ccc1Nc1ncc(Cl)c(NCc2cccc3c2C(C)(C)C(=O)N3)n1 [Example I-100]
27,2,COc1cc(N2CCN(CC3CC3)CC2)ccc1Nc1ncc(Cl)c(NCc2cccc3c2C(C)(C)C(=O)N3)n1 [Example I-101]
28,2,COc1cc(N2CCN(C3CCOCC3)[C@H](C)C2)ccc1Nc1ncc(C(F)(F)F)c(NCc2cccc3c2C(C)(C)C(=O)N3)n1 [Example I-105]
29,0.08,COc1cc(N2CCN(C(C)C)[C@H](C)C2)ccc1Nc1ncc(C(F)(F)F)c(NCc2cccc3c2C(C)(C)C(=O)N3)n1 [Example I-106]

# From US8546443B2, “Benzylic oxindole pyrimidines” (Boehringer Ingelheim International GmbH, priority 2010, dated 2013)
